This is an account of results in BindingDB's records for doi:10.1016/j.bmcl.2004.09.023 (Dupont Pharmaceuticals, 2004).

The term pIC50 denotes the IC50 on a negative log10 scale, so that one unit is a factor of ten. Lower therefore signals a large IC50.

Assay [1] addresses Cyclin-dependent kinase 2/G1/S-specific cyclin-E1 (Homo sapiens, UniProt P24941). Put plainly: Kinase Inhibition Assay.
Method: (§1) The enzyme was assayed with substrate GST-Rb in the presence of 50 mM ATP/[gamma-32P] ATP, and capturing the 32-P labeled reaction products on GSH-Sepharose beads. […] Use of 32P-labeled ATP allows this transfer to be monitored by scintillation counting.
The target of assay [2] is Cyclin-dependent kinase 4/G1/S-specific cyclin-D1 (Homo sapiens, UniProt P11802). Put plainly: Kinase Inhibition Assay.
Method: as §1

pIC50: −log10 of the molar value.

Cyclin-dependent kinase 4/G1/S-specific cyclin-D1, sequence (P11802 whole entry): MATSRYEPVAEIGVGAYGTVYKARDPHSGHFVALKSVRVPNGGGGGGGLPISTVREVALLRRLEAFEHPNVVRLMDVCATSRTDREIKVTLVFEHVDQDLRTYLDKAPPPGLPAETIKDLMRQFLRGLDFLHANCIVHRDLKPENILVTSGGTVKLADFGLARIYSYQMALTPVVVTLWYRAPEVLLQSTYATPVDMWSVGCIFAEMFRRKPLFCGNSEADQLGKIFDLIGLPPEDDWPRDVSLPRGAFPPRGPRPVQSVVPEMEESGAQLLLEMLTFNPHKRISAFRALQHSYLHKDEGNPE
Cyclin-dependent kinase 4/G1/S-specific cyclin-D1, sequence (P24385 whole entry, further chain): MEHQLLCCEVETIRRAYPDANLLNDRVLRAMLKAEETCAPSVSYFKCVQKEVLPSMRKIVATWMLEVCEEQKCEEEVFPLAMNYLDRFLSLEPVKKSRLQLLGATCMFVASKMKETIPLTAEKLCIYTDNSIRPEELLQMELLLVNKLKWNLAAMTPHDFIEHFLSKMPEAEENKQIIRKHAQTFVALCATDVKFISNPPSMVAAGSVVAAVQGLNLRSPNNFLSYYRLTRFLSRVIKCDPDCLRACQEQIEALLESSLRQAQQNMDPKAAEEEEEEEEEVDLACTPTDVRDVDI

Regarding `COc1ccc(-c2[nH]nc3c2C(=O)c2c(NC(=O)NNC(=O)c4ccc(O)cc4O)cccc2-3)cc1` [2,4-dihydroxy-N-({[3-(4-methoxyphenyl)-4-oxo-2H,4H-indeno[1,2-c]pyrazol-5-yl]carbamoyl}amino)benzamide], the figures for the pIC50 in assay [1] and in assay [2] were 7.80 and 7.92, respectively.

Take `COc1ccc(-c2[nH]nc3c2C(=O)c2c(NC(=O)NNC(=O)c4cc(Cl)ccc4Cl)cccc2-3)cc1` [2,5-dichloro-N-({[3-(4-methoxyphenyl)-4-oxo-2H,4H-indeno[1,2-c]pyrazol-5-yl]carbamoyl}amino)benzamide]: the pIC50 was 7.44 in assay [1] (pH 7.6, 22 °C) and 7.55 in assay [2].

With `COc1ccc(-c2[nH]nc3c2C(=O)c2c(NC(=O)NNC(=O)c4ccccc4OC)cccc2-3)cc1` [2-methoxy-N-({[3-(4-methoxyphenyl)-4-oxo-2H,4H-indeno[1,2-c]pyrazol-5-yl]carbamoyl}amino)benzamide], the pIC50 in assay [1] (pH 7.6, 22 °C) was 7.85.

With `COc1ccc(-c2[nH]nc3c2C(=O)c2c(NC(=O)NNC(=O)c4cc(N)cc(N)c4)cccc2-3)cc1` [3,5-diamino-N-({[3-(4-methoxyphenyl)-4-oxo-2H,4H-indeno[1,2-c]pyrazol-5-yl]carbamoyl}amino)benzamide], the pIC50 in assay [1] (pH 7.6, 22 °C) was 7.41; in assay [2] it was 7.80.

The compound `COc1ccc(-c2[nH]nc3c2C(=O)c2c(NC(=O)NNC(=O)c4cc(OC)cc(OC)c4)cccc2-3)cc1` [3,5-dimethoxy-N-({[3-(4-methoxyphenyl)-4-oxo-2H,4H-indeno[1,2-c]pyrazol-5-yl]carbamoyl}amino)benzamide] showed a pIC50 in assay [2] of 7.62.

Compound `COc1ccc(-c2[nH]nc3c2C(=O)c2c(NC(=O)NNC(=O)CCc4ccc(O)cc4)cccc2-3)cc1` [3-(4-hydroxyphenyl)-N-({[3-(4-methoxyphenyl)-4-oxo-2H,4H-indeno[1,2-c]pyrazol-5-yl]carbamoyl}amino)propanamide] showed a pIC50 in assay [1] (pH 7.6, 22 °C) of 7.89.

Regarding `COc1ccc(-c2[nH]nc3c2C(=O)c2c(NC(=O)NNC(=O)Nc4ccccc4)cccc2-3)cc1` [3-[3-(4-methoxyphenyl)-4-oxo-2H,4H-indeno[1,2-c]pyrazol-5-yl]-1-[(phenylcarbamoyl)amino]urea], the pIC50 in assay [1] (pH 7.6, 22 °C) was 7.72.

The compound `COc1ccc(-c2[nH]nc3c2C(=O)c2c(NC(=O)NNC(=O)c4ccc(O)c(N)c4)cccc2-3)cc1` [3-amino-4-hydroxy-N-({[3-(4-methoxyphenyl)-4-oxo-2H,4H-indeno[1,2-c]pyrazol-5-yl]carbamoyl}amino)benzamide] had a pIC50 in assay [1] (pH 7.6, 22 °C) of 7.62.

As to `COc1ccc(-c2[nH]nc3c2C(=O)c2c(NC(=O)NNC(=O)c4cccc(N)c4)cccc2-3)cc1` [3-amino-N-({[3-(4-methoxyphenyl)-4-oxo-2H,4H-indeno[1,2-c]pyrazol-5-yl]carbamoyl}amino)benzamide], the negative logarithm of the IC50 (pIC50) in assay [1] was 7.89.

Take `COc1ccc(C(=O)NNC(=O)Nc2cccc3c2C(=O)c2c(-c4ccc(OC)cc4)n[nH]c2-3)cc1` [4-methoxy-N-({[3-(4-methoxyphenyl)-4-oxo-2H,4H-indeno[1,2-c]pyrazol-5-yl]carbamoyl}amino)benzamide]: the pIC50 in assay [1] (pH 7.6, 22 °C) was 7.82; in assay [2] it was 7.96.

Consider `COc1ccc(-c2[nH]nc3c2C(=O)c2c(NC(=O)NNC(=O)C(C)C)cccc2-3)cc1` [N-({[3-(4-methoxyphenyl)-4-oxo-2H,4H-indeno[1,2-c]pyrazol-5-yl]carbamoyl}amino)-2-methylpropanamide], for which the pIC50 in assay [1] (pH 7.6, 22 °C) was 7.72.

With `COc1ccc(-c2[nH]nc3c2C(=O)c2c(NC(=O)NNC(=O)Cc4ccccc4)cccc2-3)cc1` [N-({[3-(4-methoxyphenyl)-4-oxo-2H,4H-indeno[1,2-c]pyrazol-5-yl]carbamoyl}amino)-2-phenylacetamide], the pIC50 in assay [1] is 7.48; in assay [2], 7.57.

As for `COc1ccc(-c2[nH]nc3c2C(=O)c2c(NC(=O)NNC(=O)c4cccc(C)c4)cccc2-3)cc1` [N-({[3-(4-methoxyphenyl)-4-oxo-2H,4H-indeno[1,2-c]pyrazol-5-yl]carbamoyl}amino)-3-methylbenzamide], the pIC50 in assay [1] (pH 7.6, 22 °C) is 7.89.

`COc1ccc(-c2[nH]nc3c2C(=O)c2c(NC(=O)NNC(=O)c4cccc([N+](=O)[O-])c4)cccc2-3)cc1` [N-({[3-(4-methoxyphenyl)-4-oxo-2H,4H-indeno[1,2-c]pyrazol-5-yl]carbamoyl}amino)-3-nitrobenzamide] had a pIC50 in assay [1] (pH 7.6, 22 °C) of 7.62.

`COc1ccc(-c2[nH]nc3c2C(=O)c2c(NC(=O)NNC(=O)c4ccc(C)cc4)cccc2-3)cc1` [N-({[3-(4-methoxyphenyl)-4-oxo-2H,4H-indeno[1,2-c]pyrazol-5-yl]carbamoyl}amino)-4-methylbenzamide]: in assay [1] (pH 7.6, 22 °C), the negative logarithm of the IC50 (pIC50) was 7.62.

With `COc1ccc(-c2[nH]nc3c2C(=O)c2c(NC(=O)NNC(C)=O)cccc2-3)cc1` [N-({[3-(4-methoxyphenyl)-4-oxo-2H,4H-indeno[1,2-c]pyrazol-5-yl]carbamoyl}amino)acetamide], the values for the pIC50 in assay [1] and in assay [2] were 7.43 and 7.24, respectively.

For the compound `COc1ccc(-c2[nH]nc3c2C(=O)c2c(NC(=O)NNC(=O)c4ccccc4)cccc2-3)cc1` [N-({[3-(4-methoxyphenyl)-4-oxo-2H,4H-indeno[1,2-c]pyrazol-5-yl]carbamoyl}amino)benzamide], in assay [1], the pIC50 is 7.92.

Regarding `COc1ccc(-c2[nH]nc3c2C(=O)c2c(NC(=O)NNC(=O)C(N)=O)cccc2-3)cc1` [N-({[3-(4-methoxyphenyl)-4-oxo-2H,4H-indeno[1,2-c]pyrazol-5-yl]carbamoyl}amino)ethanediamide], the pIC50 in assay [1] was 7.01.

For the compound `COc1ccc(-c2[nH]nc3c2C(=O)c2c(NC(=O)NNC(=O)c4cccc5ccccc45)cccc2-3)cc1` [N-({[3-(4-methoxyphenyl)-4-oxo-2H,4H-indeno[1,2-c]pyrazol-5-yl]carbamoyl}amino)naphthalene-1-carboxamide], the pIC50 in assay [1] (pH 7.6, 22 °C) was 7.28.

As to `COc1ccc(-c2[nH]nc3c2C(=O)c2c(NC(=O)NNC(=O)c4ccc5ccccc5c4)cccc2-3)cc1` [N-({[3-(4-methoxyphenyl)-4-oxo-2H,4H-indeno[1,2-c]pyrazol-5-yl]carbamoyl}amino)naphthalene-2-carboxamide], the pIC50 was 7.46 in assay [1] and 7.89 in assay [2].

The compound `COc1ccc(-c2[nH]nc3c2C(=O)c2c(NC(=O)NNC(=O)c4cccnc4)cccc2-3)cc1` [N-({[3-(4-methoxyphenyl)-4-oxo-2H,4H-indeno[1,2-c]pyrazol-5-yl]carbamoyl}amino)pyridine-3-carboxamide] had a pIC50 in assay [1] of 7.80.

Consider `COc1ccc(-c2[nH]nc3c2C(=O)c2c(NC(=O)NNC(=O)c4ccncc4)cccc2-3)cc1` [N-({[3-(4-methoxyphenyl)-4-oxo-2H,4H-indeno[1,2-c]pyrazol-5-yl]carbamoyl}amino)pyridine-4-carboxamide], for which the pIC50 in assay [1] is 7.92.

With `COC(=O)NNC(=O)Nc1cccc2c1C(=O)c1c-2n[nH]c1-c1ccc(OC)cc1` [methoxy-N-({[3-(4-methoxyphenyl)-4-oxo-2H,4H-indeno[1,2-c]pyrazol-5-yl]carbamoyl}amino)formamide], in assay [1] (pH 7.6, 22 °C), the pIC50 was 7.80.
